Reference: BigSolDB 2.1

OCc1ccc(O[C@@H]2O[C@H](CO)[C@@H](O)[C@H](O)[C@H]2O)cc1
solubility (mole fraction)
Conditions | 273.15 K | 278.15 K | 283.15 K | 288.15 K | 293.15 K | 298.15 K | 303.15 K | 308.15 K | 313.15 K
in 1,4-dioxane | – | – | – | 0.00324 | 0.00373 | 0.0043 | 0.00493 | 0.00562 | 0.0063
in acetone | 0.00097 | 0.00117 | 0.00142 | 0.00171 | 0.00199 | 0.00233 | 0.00273 | 0.00318 | 0.00368
in acetonitrile | 0.00066 | 0.00076 | 0.00088 | 0.001 | 0.00115 | 0.0013 | 0.00147 | 0.00166 | 0.00188
in cyclohexane | 0.000383 | 0.000624 | 0.000909 | 0.00125 | 0.0016 | 0.00213 | 0.00261 | 0.00326 | 0.00396
in cyclohexanone | 0.00128 | 0.00152 | 0.00185 | 0.0022 | 0.00257 | 0.00299 | 0.00344 | 0.00396 | 0.00455
in ethanol | 0.00085 | 0.00105 | 0.00129 | 0.00157 | 0.00188 | 0.0022 | 0.00255 | 0.00296 | 0.00337
in ethyl acetate | 0.00174 | 0.002 | 0.00234 | 0.00274 | 0.00318 | 0.00364 | 0.00418 | 0.00481 | 0.00543
in isopropanol | 0.00114 | 0.00139 | 0.00169 | 0.002 | 0.00235 | 0.00271 | 0.00312 | 0.00356 | 0.00403
in n-butanol | 0.0368 | 0.0395 | 0.0423 | 0.0454 | 0.0486 | 0.0521 | 0.0557 | 0.0595 | 0.0633
in n-propanol | 0.00074 | 0.00094 | 0.00115 | 0.00138 | 0.00165 | 0.00194 | 0.00226 | 0.00262 | 0.00301
in toluene | 0.00148 | 0.0018 | 0.00212 | 0.00248 | 0.00288 | 0.0033 | 0.00378 | 0.00431 | 0.00493
